{"source": "patent US9452986B2", "about": "“6-heteroaryloxy- or 6-aryloxy-quinoline-2-carboxamides and method of use” (AbbVie Inc., priority 2014, dated 2016)"}
{"biological_target": "recombinant human Nav1.7 (Homo sapiens (Human), UniProt Q15858)", "sequence (Q15858 whole entry)": "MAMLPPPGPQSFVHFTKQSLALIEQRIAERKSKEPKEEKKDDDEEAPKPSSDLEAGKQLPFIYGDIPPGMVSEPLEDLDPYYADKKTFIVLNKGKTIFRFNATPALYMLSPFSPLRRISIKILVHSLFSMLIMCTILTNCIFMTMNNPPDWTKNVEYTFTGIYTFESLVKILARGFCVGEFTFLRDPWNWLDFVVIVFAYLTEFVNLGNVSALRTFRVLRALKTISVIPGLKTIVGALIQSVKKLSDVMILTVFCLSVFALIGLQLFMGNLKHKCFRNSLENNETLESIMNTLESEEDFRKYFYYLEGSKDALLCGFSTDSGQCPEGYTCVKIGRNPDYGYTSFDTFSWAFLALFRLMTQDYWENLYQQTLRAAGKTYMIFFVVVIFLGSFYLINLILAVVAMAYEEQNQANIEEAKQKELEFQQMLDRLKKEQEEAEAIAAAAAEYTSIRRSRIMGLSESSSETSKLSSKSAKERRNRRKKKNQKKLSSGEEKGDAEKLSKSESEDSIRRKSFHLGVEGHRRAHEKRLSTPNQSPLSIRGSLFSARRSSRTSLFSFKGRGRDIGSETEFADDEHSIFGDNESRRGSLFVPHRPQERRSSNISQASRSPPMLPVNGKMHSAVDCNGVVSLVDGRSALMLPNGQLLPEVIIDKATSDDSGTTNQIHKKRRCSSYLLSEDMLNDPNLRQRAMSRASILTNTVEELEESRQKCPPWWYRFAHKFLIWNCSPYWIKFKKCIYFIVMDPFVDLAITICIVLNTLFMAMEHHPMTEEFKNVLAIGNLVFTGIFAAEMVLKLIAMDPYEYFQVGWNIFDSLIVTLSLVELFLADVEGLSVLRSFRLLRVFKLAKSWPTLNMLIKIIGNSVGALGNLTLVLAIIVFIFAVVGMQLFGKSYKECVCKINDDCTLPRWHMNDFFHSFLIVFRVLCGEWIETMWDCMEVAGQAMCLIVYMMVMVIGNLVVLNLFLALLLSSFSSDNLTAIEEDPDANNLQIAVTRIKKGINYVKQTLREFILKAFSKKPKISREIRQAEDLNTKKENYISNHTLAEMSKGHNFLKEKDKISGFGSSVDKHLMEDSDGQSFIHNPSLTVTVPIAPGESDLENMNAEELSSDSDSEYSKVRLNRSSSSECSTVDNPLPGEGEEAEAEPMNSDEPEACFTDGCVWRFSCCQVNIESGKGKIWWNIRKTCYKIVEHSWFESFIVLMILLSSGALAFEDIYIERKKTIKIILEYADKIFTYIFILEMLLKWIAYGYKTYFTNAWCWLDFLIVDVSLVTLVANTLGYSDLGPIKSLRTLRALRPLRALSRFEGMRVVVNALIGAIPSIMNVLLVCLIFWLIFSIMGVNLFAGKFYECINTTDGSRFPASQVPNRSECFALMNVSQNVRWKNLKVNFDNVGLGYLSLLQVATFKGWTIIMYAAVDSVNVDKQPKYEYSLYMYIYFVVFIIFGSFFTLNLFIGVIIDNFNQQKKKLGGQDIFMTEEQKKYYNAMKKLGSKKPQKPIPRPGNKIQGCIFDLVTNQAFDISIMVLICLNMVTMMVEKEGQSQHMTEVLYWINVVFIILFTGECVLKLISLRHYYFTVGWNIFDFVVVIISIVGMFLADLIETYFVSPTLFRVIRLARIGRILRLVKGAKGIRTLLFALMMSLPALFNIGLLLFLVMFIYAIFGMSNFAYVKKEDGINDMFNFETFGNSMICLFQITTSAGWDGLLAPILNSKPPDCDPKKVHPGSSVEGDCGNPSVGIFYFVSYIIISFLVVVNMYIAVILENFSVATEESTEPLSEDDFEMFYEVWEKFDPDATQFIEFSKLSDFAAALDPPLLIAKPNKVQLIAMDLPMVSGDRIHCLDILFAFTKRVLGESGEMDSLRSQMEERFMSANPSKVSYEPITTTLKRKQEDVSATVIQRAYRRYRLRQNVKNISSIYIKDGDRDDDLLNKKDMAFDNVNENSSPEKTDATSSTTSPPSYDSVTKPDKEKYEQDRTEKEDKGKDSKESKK", "assay": "FRET-based membrane potential assay, recombinant human sodium channel Nav1.7", "assay_type": "cell-based", "conditions": "FRET-Membrane Potential Nav1.7 IC50", "how_it_was_run": "(§1)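 Channel activation used veratridine at its EC80, set by a dilution curve each experiment, together with Leiurus scorpion venom, added 3 min after compound. Membrane-potential ratio signals from FLIPR Tetra in HEPES-buffered HBSS were fitted to a four-parameter Hill equation for percent inhibition and IC50.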", "units": {"IC50": "µM"}}
{"compound": "O=C(c1ccc2cc(Oc3ccc(C(F)(F)F)cn3)ccc2n1)N1CC[C@H](O)[C@H](F)C1", "note": "(relative stereo) [Example 191, [cis-3-fluoro-4-hydroxypiperidin-1-yl](6-{[5-(trifluoromethyl)pyridin-2-yl]oxy}quinolin-2-yl)methanone]", "IC50": "> 20"}
{"biological_target": "recombinant human Nav1.7 (Homo sapiens (Human), UniProt Q15858)", "assay": "FRET-based membrane potential assay, recombinant human sodium channel Nav1.7", "assay_type": "cell-based", "conditions": "HEK293 cells stably expressing recombinant human Nav1.7; veratridine + scorpion venom depolarization; read-out: FRET-Membrane Potential Nav1.7 IC50", "how_it_was_run": "as §1", "units": {"IC50": "µM"}}
{"compound": "O=C(c1ccc2cc(Oc3ccc(C(F)(F)F)cn3)ccc2n1)N1CCC[C@@]12CC[C@H](O)C2", "note": "[Example 313, [(5S,7S)-7-hydroxy-1-azaspiro[4.4]non-1-yl](6-{[5-(trifluoromethyl)pyridin-2-yl]oxy}quinolin-2-yl)methanone]", "IC50": 14}
{"compound": "C[C@@H]1CN(C(=O)c2ccc3cc(Oc4ccc(C(F)(F)F)cn4)ccc3n2)C[C@H]1O", "note": "(relative stereo) [Example 306, [trans-3-hydroxy-4-methylpyrrolidin-1-yl](6-{[5-(trifluoromethyl)pyridin-2-yl]oxy}quinolin-2-yl)methanone]", "IC50": 14.8}
{"compound": "N[C@H]1CC[C@@H]2CN(C(=O)c3ccc4cc(Oc5ccc(C(F)(F)F)cn5)ccc4n3)C[C@@H]21", "note": "[Example 248, [(3aR,4S,6aS)-4-aminohexahydrocyclopenta[c]pyrrol-2(1H)-yl](6-{[5-(trifluoromethyl)pyridin-2-yl]oxy}quinolin-2-yl)methanone]", "IC50": 17.3}
{"compound": "O=C(c1ccc2cc(Oc3ccc(C(F)(F)F)cn3)ccc2n1)N1CCN(C2CCCCC2)CC1", "note": "[Example 291, (4-cyclohexylpiperazin-1-yl)(6-{[5-(trifluoromethyl)pyridin-2-yl]oxy}quinolin-2-yl)methanone]", "IC50": 13.7}
{"compound": "O=C(c1ccc2cc(Oc3ccc(C(F)(F)F)cn3)ccc2n1)N1CC2OCOC2C1", "note": "(centres unmarked) [Example 478, tetrahydro-5H-[1,3]dioxolo[4,5-c]pyrrol-5-yl(6-{[5-(trifluoromethyl)pyridin-2-yl]oxy}quinolin-2-yl)methanone]", "IC50": 5.94}
{"compound": "O=C(NC1COC1)c1ccc2cc(Oc3ccc(C(F)(F)F)nc3)ccc2n1", "note": "[Example 536, N-(oxetan-3-yl)-6-{[6-(trifluoromethyl)pyridin-3-yl]oxy}quinoline-2-carboxamide]", "IC50": 1.15}
{"compound": "O=C(NC1COCC1O)c1ccc2cc(Oc3ccc(C(F)(F)F)cn3)ccc2n1", "note": "(centres unmarked) [Example 371, N-(4-hydroxytetrahydrofuran-3-yl)-6-{[5-(trifluoromethyl)pyridin-2-yl]oxy}quinoline-2-carboxamide]", "IC50": 1.46}
{"compound": "N#CC1CCN(C(=O)c2ccc3cc(Oc4ccc(C(F)(F)F)cn4)ccc3n2)CC1", "note": "[Example 474, 1-[(6-{[5-(trifluoromethyl)pyridin-2-yl]oxy}quinolin-2-yl)carbonyl]piperidine-4-carbonitrile]", "IC50": 9.1}
{"compound": "O=C(NC1CC(N2CCOCC2)C1)c1ccc2cc(Oc3ccc(C(F)(F)F)cn3)ccc2n1", "note": "(centres unmarked) [Example 433, N-[3-(morpholin-4-yl)cyclobutyl]-6-{[5-(trifluoromethyl)pyridin-2-yl]oxy}quinoline-2-carboxamide]", "IC50": 0.442}
{"compound": "CC(C)NC(=O)C1CN(C(=O)c2ccc3cc(Oc4ccc(C(F)(F)F)cn4)ccc3n2)CCN1", "note": "(centres unmarked) [Example 321, N-isopropyl-4-[(6-{[5-(trifluoromethyl)pyridin-2-yl]oxy}quinolin-2-yl)carbonyl]piperazine-2-carboxamide]", "IC50": 8.07}
{"compound": "O=C(NCC1CSC1)c1ccc2cc(Oc3ccc(C(F)(F)F)cn3)ccc2n1", "note": "[Example 600, N-(thietan-3-ylmethyl)-6-{[5-(trifluoromethyl)pyridin-2-yl]oxy}quinoline-2-carboxamide]", "IC50": 1.76}
{"compound": "O=C(NCCc1ccccn1)c1ccc2cc(Oc3ccc(C(F)(F)F)cn3)ccc2n1", "note": "[Example 606, N-[2-(pyridin-2-yl)ethyl]-6-{[5-(trifluoromethyl)pyridin-2-yl]oxy}quinoline-2-carboxamide]", "IC50": 0.856}
{"compound": "O=C(NC1CCNCC1)c1ccc2cc(Oc3ccc(C(F)(F)F)cn3)ccc2n1", "note": "[Example 264, N-(piperidin-4-yl)-6-{[5-(trifluoromethyl)pyridin-2-yl]oxy}quinoline-2-carboxamide]", "IC50": 3.21}
{"compound": "O=C(NC1CCSC1)c1ccc2cc(Oc3ccc(C(F)(F)F)cn3)ccc2n1", "note": "(centres unmarked) [Example 420, N-(tetrahydrothiophen-3-yl)-6-{[5-(trifluoromethyl)pyridin-2-yl]oxy}quinoline-2-carboxamide]", "IC50": 2.43}
{"compound": "CS(=O)(=O)[C@@H]1CN(C(=O)c2ccc3cc(Oc4ccc(C(F)(F)F)cn4)ccc3n2)C[C@H]1O", "note": "(relative stereo) [Example 351, [trans-3-hydroxy-4-(methylsulfonyl)pyrrolidin-1-yl](6-{[5-(trifluoromethyl)pyridin-2-yl]oxy}quinolin-2-yl)methanone]", "IC50": 3.6}
{"compound": "O=C(c1ccc2cc(Oc3ccc(C(F)(F)F)cn3)ccc2n1)N1CC(F)(F)C[C@H]1CO", "note": "[Example 497, [(2S)-4,4-difluoro-2-(hydroxymethyl)pyrrolidin-1-yl](6-{[5-(trifluoromethyl)pyridin-2-yl]oxy}quinolin-2-yl)methanone]", "IC50": 3.43}
{"compound": "O=C(c1ccc2cc(Oc3ccc(C(F)(F)F)cn3)ccc2n1)N1CC(Oc2ccc(Cl)cc2)C1", "note": "[Example 203, [3-(4-chlorophenoxy)azetidin-1-yl](6-{[5-(trifluoromethyl)pyridin-2-yl]oxy}quinolin-2-yl)methanone]", "IC50": "> 20"}
{"compound": "O=C(NCC(O)C(F)(F)F)c1ccc2cc(Oc3ccc(C(F)(F)F)cn3)ccc2n1", "note": "(centres unmarked) [Example 75, N-(3,3,3-trifluoro-2-hydroxypropyl)-6-{[5-(trifluoromethyl)pyridin-2-yl]oxy}quinoline-2-carboxamide]", "IC50": 0.944}
{"compound": "CC(C)(O)c1ccc(Oc2ccc3nc(C(=O)N4CCNCC4)ccc3c2)cc1", "note": "[Example 209, {6-[4-(2-hydroxypropan-2-yl)phenoxy]quinolin-2-yl}(piperazin-1-yl)methanone]", "IC50": 8.86}
{"compound": "CC1(O)CC(NC(=O)c2ccc3cc(Oc4ccc(C(F)(F)F)cn4)ccc3n2)C1", "note": "(centres unmarked) [Example 426, N-(3-hydroxy-3-methylcyclobutyl)-6-{[5-(trifluoromethyl)pyridin-2-yl]oxy}quinoline-2-carboxamide]", "IC50": 0.972}
{"compound": "CC(=O)N1CCN(C(=O)c2ccc3cc(Oc4ccc(C(F)(F)F)cn4)ccc3n2)CC1", "note": "[Example 218, 1-{4-[(6-{[5-(trifluoromethyl)pyridin-2-yl]oxy}quinolin-2-yl)carbonyl]piperazin-1-yl}ethanone]", "IC50": "> 20"}
{"compound": "CC1(O)CC(NC(=O)c2ccc3cc(Oc4ccc(C(F)(F)F)nc4)ccc3n2)C1", "note": "(centres unmarked) [Example 578, N-(3-hydroxy-3-methylcyclobutyl)-6-{[6-(trifluoromethyl)pyridin-3-yl]oxy}quinoline-2-carboxamide]", "IC50": 1.07}
{"compound": "O=C(c1ccc2cc(Oc3ccc(C(F)(F)F)cn3)ccc2n1)N1CCN(S(=O)(=O)C2CCS(=O)(=O)C2)CC1", "note": "(centres unmarked) [Example 386, {4[(1,1-dioxidotetrahydrothiophen-3-yl)sulfonyl]piperazin-1-yl}(6-{[5-(trifluoromethyl)pyridin-2-yl]oxy}quinolin-2-yl)methanone]", "IC50": "> 20"}
{"compound": "O=C(N[C@@H]1CS(=O)(=O)C[C@H]1O)c1ccc2cc(Oc3ccc(C(F)F)cn3)ccc2n1", "note": "[Example 477, 6-{[5-(difluoromethyl)pyridin-2-yl]oxy}-N-[(3S,4S)-4-hydroxy-1,1-dioxidotetrahydrothiophen-3-yl]quinoline-2-carboxamide]", "IC50": 5.51}
{"compound": "CN(C)C(=O)N1CCN(C(=O)c2ccc3cc(Oc4ccc(C(F)(F)F)cn4)ccc3n2)CC1", "note": "[Example 187, N,N-dimethyl-4-[(6-{[5-(trifluoromethyl)pyridin-2-yl]oxy}quinolin-2-yl)carbonyl]piperazine-1-carboxamide]", "IC50": "> 20"}
{"biological_target": "recombinant human Nav1.7 (Homo sapiens (Human), UniProt Q15858)", "assay": "FRET-based membrane potential assay, recombinant human sodium channel Nav1.7", "assay_type": "cell-based", "conditions": "read-out: FRET-Membrane Potential Nav1.7 IC50", "how_it_was_run": "as §1", "units": {"IC50": "µM"}}
{"compound": "CC(=O)N[C@@H]1CCN(C(=O)c2ccc3cc(Oc4ccc(C(F)(F)F)cn4)ccc3n2)C1", "note": "[Example 438, N-{(3R)-1-[(6-{[5-(trifluoromethyl)pyridin-2-yl]oxy}quinolin-2-yl)carbonyl]pyrrolidin-3-yl}acetamide]", "IC50": 12.5}
{"compound": "CS(=O)(=O)N1CCN(C(=O)c2ccc3cc(Oc4ccc(C(F)(F)F)cn4)ccc3n2)CC1", "note": "[Example 176, [4-(methylsulfonyl)piperazin-1-yl](6-{[5-(trifluoromethyl)pyridin-2-yl]oxy}quinolin-2-yl)methanone]", "IC50": 8.77}
{"compound": "O=C(c1ccc2cc(Oc3ccc(C(F)(F)F)cc3)ccc2n1)N1CCNCC1", "note": "[Example 249, piperazin-1-yl {6-[4-(trifluoromethyl)phenoxy]quinolin-2-yl}methanone]", "IC50": 0.902}
{"compound": "O=C(c1ccc2cc(Oc3ccc(C(F)(F)F)cn3)ccc2n1)N1CCN(CCC(F)(F)F)CC1", "note": "[Example 311, (6-{[5-(trifluoromethyl)pyridin-2-yl]oxy}quinolin-2-yl)[4-(3,3,3-trifluoropropyl)piperazin-1-yl]methanone]", "IC50": 3.11}
{"compound": "O=C(c1ccc2cc(Oc3ccc(C(F)(F)F)cn3)ccc2n1)N1CCC(O)CC1", "note": "[Example 256, (4-hydroxypiperidin-1-yl)(6-{[5-(trifluoromethyl)pyridin-2-yl]oxy}quinolin-2-yl)methanone]", "IC50": 16.4}
{"compound": "CC1(O)CN(C(=O)CNC(=O)c2ccc3cc(Oc4ccc(C(F)(F)F)cn4)ccc3n2)C1", "note": "[Example 567, N-[2-(3-hydroxy-3-methylazetidin-1-yl)-2-oxoethyl]-6-{[5-(trifluoromethyl)pyridin-2-yl]oxy}quinoline-2-carboxamide]", "IC50": 3.28}
{"compound": "O=C(c1ccc2cc(Oc3ccc(C(F)(F)F)cn3)ccc2n1)N1CCC[C@@H](O)C1", "note": "[Example 581, [(3R)-3-hydroxypiperidin-1-yl](6-{[5-(trifluoromethyl)pyridin-2-yl]oxy}quinolin-2-yl)methanone]", "IC50": 12.6}
{"compound": "CC(O)CNC(=O)c1ccc2cc(Oc3ccc(C#N)cc3)ccc2n1", "note": "(centres unmarked) [Example 128, 6-(4-cyanophenoxy)-N-(2-hydroxypropyl)quinoline-2-carboxamide]", "IC50": 2.85}
{"compound": "O=C(c1ccc2cc(Oc3ccc(C(F)F)cn3)ccc2n1)N1CCN2CC(F)(F)C[C@H]2C1", "note": "[Example 542, [(8aS)-7,7-difluorohexahydropyrrolo[1,2-a]pyrazin-2(1H)-yl](6-{[5-(difluoromethyl)pyridin-2-yl]oxy}quinolin-2-yl)methanone]", "IC50": 14.5}
